ChEMBL document CHEMBL1255393, “Impact of different factors on the probability of clinical response in tigecycline-treated patients with intra-abdominal infections” (Antimicrob Agents Chemother, 2010)
In brackets after ≈: the same amount, converted by molar mass.

Columns and labels:
[1] = Serum clearance in intra-abdominal infection patient at 100 mg followed by 50 mg every 12 hrs for 5 to 14 days; type: ADME, organism-based; details: human
[2] = AUC in intra-abdominal infection patient at 100 mg followed by 50 mg every 12 hrs for 5 to 14 days; type: ADME, organism-based; details: human, plasma
Enterobacteriaceae = assay: Antibacterial activity against Enterobacteriaceae isolate obtained from intra-abdominal infection patient; type: functional
[3] = Ratio of AUC in intra-abdominal infection patient at 100 mg followed by 50 mg every 12 hrs for 5 to 14 days to MIC for Enterobacteriaceae isolate; type: functional

CN(C)c1cc(NC(=O)CNC(C)(C)C)c(O)c2c1C[C@H]1C[C@H]3[C@H](N(C)C)C(O)=C(C(N)=O)C(=O)[C@@]3(O)C(O)=C1C2=O [TIGECYCLINE] gave a clearance [1] of 268 mL/min, an AUC [2] of 6190 ng·h/mL and an MIC50 (Enterobacteriaceae) of 0.25 µg/mL (≈ 0.427 µM). It also gave an MIC90 (Enterobacteriaceae) of 1 µg/mL (≈ 1.71 µM) and a Ratio [3] of 21.8.
